Assay results reported in patent US9815796B2 (Merck Sharp & Dohme Corp., priority 2013, dated 2017).
Like-named read-outs stand apart in the source and are kept apart here.

Tests used:
Rhesus PDE2A3 = Rhesus PDE2A3 (Macaca mulatta, UniProt B3VTJ2); experiment: PDE2 fluorescence polarization (IMAP FP) inhibition assay, rhesus enzyme; format: biochemical, rhesus macaque
Method in brief: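 Rhesus PDE2A3 came from lysate of transiently transfected AD293 cells, diluted to give 20% substrate conversion. Substrate was 50 nM FAM-cAMP with 1 uM cGMP activator in Tris pH 7.2/MgCl2 buffer, run 60 min at room temperature over 10-point 3-fold dilutions in 1% DMSO. Read-out was IMAP fluorescence polarization (mP) after ≥1 h binding.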

human PDE2A1 = human PDE2A1 (Homo sapiens (Human), UniProt O00408); experiment: IMAP FP PDE selectivity panel, human PDE2A1; format: biochemical
Method in brief: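 GST-tagged human PDE2A1 expressed in insect cells, run at room temperature for 60 min with 50 nM FAM-cAMP containing 1000 nM cGMP, pH 7.2 Tris/MgCl2 buffer. IMAP fluorescence polarization read after binding step.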

[1] = Rhesus PDE2, Lab A, read-out: Rhesus PDE2 Ki (nM) - Lab A
[2] = Human PDE2, Lab A, read-out: Human PDE2 Ki (nM) - Lab A
[3] = Rhesus PDE2, Lab B, read-out: Rhesus PDE2 Ki (nM) - Lab B
[4] = Human PDE2, Lab B, read-out: Human PDE2 Ki (nM) - Lab B

Sequence of Rhesus PDE2A3 (B3VTJ2 1-941): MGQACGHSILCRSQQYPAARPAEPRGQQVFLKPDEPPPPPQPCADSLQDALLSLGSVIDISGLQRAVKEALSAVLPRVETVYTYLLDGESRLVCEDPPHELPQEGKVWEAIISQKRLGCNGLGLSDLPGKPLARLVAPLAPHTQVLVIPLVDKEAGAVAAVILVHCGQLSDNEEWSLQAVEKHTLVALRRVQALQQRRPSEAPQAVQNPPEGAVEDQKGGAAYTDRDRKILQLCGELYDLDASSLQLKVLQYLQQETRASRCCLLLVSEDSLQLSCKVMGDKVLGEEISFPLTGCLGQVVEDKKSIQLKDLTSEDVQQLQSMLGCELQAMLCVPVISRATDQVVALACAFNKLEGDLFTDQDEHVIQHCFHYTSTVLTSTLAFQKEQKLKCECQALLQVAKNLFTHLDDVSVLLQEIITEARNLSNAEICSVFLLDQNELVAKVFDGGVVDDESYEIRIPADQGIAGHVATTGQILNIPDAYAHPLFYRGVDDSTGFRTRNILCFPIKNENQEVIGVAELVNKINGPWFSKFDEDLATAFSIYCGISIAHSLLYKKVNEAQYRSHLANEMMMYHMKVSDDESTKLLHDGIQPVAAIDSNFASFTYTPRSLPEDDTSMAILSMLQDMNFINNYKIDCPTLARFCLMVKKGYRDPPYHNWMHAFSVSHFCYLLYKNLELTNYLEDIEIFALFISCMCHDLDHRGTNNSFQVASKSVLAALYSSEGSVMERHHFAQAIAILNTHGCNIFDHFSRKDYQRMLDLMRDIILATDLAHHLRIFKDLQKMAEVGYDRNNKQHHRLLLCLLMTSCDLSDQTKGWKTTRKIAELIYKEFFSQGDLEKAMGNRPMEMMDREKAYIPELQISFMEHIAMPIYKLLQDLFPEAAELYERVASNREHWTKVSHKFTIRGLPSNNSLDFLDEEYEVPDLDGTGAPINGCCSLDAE
Sequence of human PDE2A1 (O00408 other isoform, or with tags, fused parts or gaps): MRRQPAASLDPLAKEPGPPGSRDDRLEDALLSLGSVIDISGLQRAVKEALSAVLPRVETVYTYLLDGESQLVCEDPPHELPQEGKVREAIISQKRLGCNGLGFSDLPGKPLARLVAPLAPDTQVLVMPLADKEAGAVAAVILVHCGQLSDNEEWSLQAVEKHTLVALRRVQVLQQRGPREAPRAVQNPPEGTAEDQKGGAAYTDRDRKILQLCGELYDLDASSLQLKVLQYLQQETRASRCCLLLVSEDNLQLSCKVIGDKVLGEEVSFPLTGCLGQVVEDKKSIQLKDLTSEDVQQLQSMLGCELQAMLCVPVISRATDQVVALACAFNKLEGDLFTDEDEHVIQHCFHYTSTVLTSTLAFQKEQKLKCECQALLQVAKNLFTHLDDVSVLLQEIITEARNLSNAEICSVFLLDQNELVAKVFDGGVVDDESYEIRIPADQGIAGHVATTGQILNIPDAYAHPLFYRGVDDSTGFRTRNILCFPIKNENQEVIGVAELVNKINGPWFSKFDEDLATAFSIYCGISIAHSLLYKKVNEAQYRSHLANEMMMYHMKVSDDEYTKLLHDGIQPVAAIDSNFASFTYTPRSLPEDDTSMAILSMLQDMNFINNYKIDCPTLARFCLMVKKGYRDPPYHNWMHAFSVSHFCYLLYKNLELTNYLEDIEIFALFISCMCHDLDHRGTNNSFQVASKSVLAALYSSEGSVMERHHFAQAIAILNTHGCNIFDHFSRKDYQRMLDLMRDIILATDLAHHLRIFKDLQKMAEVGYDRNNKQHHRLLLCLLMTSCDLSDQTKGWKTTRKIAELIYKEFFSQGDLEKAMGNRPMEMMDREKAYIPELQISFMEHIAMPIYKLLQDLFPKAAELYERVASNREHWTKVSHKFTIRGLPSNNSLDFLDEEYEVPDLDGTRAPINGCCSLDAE

| Ki (Rhesus PDE2A3; [1]) | Ki (human PDE2A1; [2]) | Ki (Rhesus PDE2A3; [3]) | Ki (human PDE2A1; [4]) | SMILES |
| --- | --- | --- | --- | --- |
| 0.56 nM | 0.52 nM | – | – | COc1ccc(Cc2nc(C(=O)N[C@H](C)c3ccc(C(F)(F)F)cc3)cc(=O)[nH]2)cc1OC [Example 4, 2-(3,4-dimethoxybenzyl)-6-oxo-N-{(1R)-1-[4-(trifluoromethyl)phenyl]ethyl}-1,6-dihydropyrimidine-4-carboxamide] |
| – | – | 1.1 nM | 0.78 nM | CC(C)(C)[C@@H](NC(=O)c1cc(=O)[nH]c(C2CC2)n1)c1ccc(C2CC2)c(F)c1 [Example 435, 2-cyclopropyl-N-[(1R)-1-(4-cyclopropyl-3-fluorophenyl)-2,2-dimethylpropyl]-6-oxo-1,6-dihydropyrimidine-4-carboxamide] |
| 60 nM | 41 nM | – | – | CC(NC(=O)c1cc(=O)[nH]c(-c2ncccn2)n1)c1ccc(Br)cc1 (stereo not shown) [Example 85, N-[1-(4-bromophenyl)ethyl]-6-oxo-1,6-dihydro-2,2′-bipyrimidine-4-carboxamide] |
| 472 nM | 314 nM | – | – | Cc1nc(C(=O)NC(C)c2ccc(C(F)(F)F)cc2Cl)cc(=O)[nH]1 (stereo not shown) [Example 18, N-{1-[2-chloro-4-(trifluoromethyl)phenyl]ethyl}-2-methyl-6-oxo-1,6-dihydropyrimidine-4-carboxamide] |
| 3.4 nM | 1.2 nM | – | – | CC(C)[C@@H](NC(=O)c1cc(=O)[nH]c(C2CC2)n1)c1ccc(OC(F)(F)F)cc1 [Example 191, 2-cyclopropyl-N-{(1R)-2-methyl-1-[4-(trifluoromethoxy)phenyl]propyl}-6-oxo-1,6-dihydropyrimidine-4-carboxamide] |
| – | – | 9.1 nM | 9.5 nM | Cc1nc(C(=O)N[C@@H](c2ccc(C3CC3)c(F)c2)C2CC2)cc(=O)[nH]1 [Example 426, N-[(R)-cyclopropyl(4-cyclopropyl-3-fluorophenyl)methyl]-2-methyl-6-oxo-1,6-dihydropyrimidine-4-carboxamide] |
| – | – | 1.6 nM | 1.5 nM | COc1ccc(Cc2nc(C(=O)N[C@@H](c3ccc(C(F)(F)F)cc3)C(C)C)cc(=O)[nH]2)cc1F [Example 516, 2-(3-fluoro-4-methoxybenzyl)-N-{(1R)-2-methyl-1-[4-(trifluoromethyl)phenyl]propyl}-6-oxo-1,6-dihydropyrimidine-4-carboxamide] |
| 2830 nM | 2370 nM | – | – | C[C@@H](NC(=O)c1nc[nH]c(=O)c1C1CCC1)c1ccc(C(F)(F)F)cc1 [Example 334, (R)-5-cyclobutyl-6-oxo-N-(1-(4-(trifluoromethyl)phenyl)ethyl)-1,6-dihydropyrimidine-4-carboxamide] |
| 37 nM | 20 nM | – | – | O=C(NC1(c2ccc(SC(F)(F)F)cc2)CCC1)c1cc(=O)[nH]c(C2CC2)n1 [Example 204, 2-cyclopropyl-6-oxo-N-(1-{4-[(trifluoromethyl)sulfanyl]phenyl}cyclobutyl)-1,6-dihydropyrimidine-4-carboxamide] |
| 3.3 nM | 2.1 nM | – | – | CC(C)[C@@H](NC(=O)c1cc(=O)[nH]c(-c2ccccc2)n1)c1ccc(OC(F)(F)F)cc1 [Example 166, N-{(1R)-2-methyl-1-[4-(trifluoromethoxy)phenyl]propyl}-6-oxo-2-phenyl-1,6-dihydropyrimidine-4-carboxamide] |
| 237 nM | 199 nM | – | – | COc1ccc([C@@H](C)NC(=O)c2cc(=O)[nH]c(-c3ncccn3)n2)cc1 [Example 86, N-[(1R)-1-(4-methoxyphenyl)ethyl]-6-oxo-1,6-dihydro-2,2′-bipyrimidine-4-carboxamide] |
| 245 nM | – | 356 nM | 354 nM | CC(NC(=O)c1cc(=O)[nH]c(-c2ccccc2)n1)c1ccc(-n2cncn2)cc1 (stereo not shown) [Example 363, 6-oxo-2-phenyl-N-{1-[4-(1H-1,2,4-triazol-1-yl)phenyl]ethyl}-1,6-dihydropyrimidine-4-carboxamide] |
| – | – | 3.1 nM | 3 nM | CC[C@@H](NC(=O)c1cc(=O)[nH]c(Cc2ccc(OC)c(F)c2)n1)c1ccc(C(F)(F)F)c(F)c1 [Example 527, 2-(3-fluoro-4-methoxybenzyl)-N-{(1R)-1-[3-fluoro-4-(trifluoromethyl)phenyl]propyl}-6-oxo-1,6-dihydropyrimidine-4-carboxamide] |
| 6.3 nM | 2.2 nM | – | – | COc1ccc(Cc2nc(C(=O)N[C@H](C)c3ccc(C(F)(F)F)cc3)cc(=O)[nH]2)cc1 [Example 136, 2-(4-methoxybenzyl)-6-oxo-N-{(1R)-1-[4-(trifluoromethyl)phenyl]ethyl}-1,6-dihydropyrimidine-4-carboxamide] |
| 2900 nM | 2270 nM | – | – | CCc1c(C(=O)N[C@H](C)c2ccc(C(F)(F)F)cc2)nc[nH]c1=O [Example 332, (R)-5-ethyl-6-oxo-N-(1-(4-(trifluoromethyl)phenyl)ethyl)-1,6-dihydropyrimidine-4-carboxamide] |
| – | – | 5.5 nM | 3.3 nM | C[C@@H](O)[C@@H](NC(=O)c1cc(=O)[nH]c(-c2ccccc2)n1)c1ccc(C(F)(F)F)cc1 [Example 392, N-{(1S,2R)-2-hydroxy-1-[4-(trifluoromethyl)phenyl]propyl}-6-oxo-2-phenyl-1,6-dihydropyrimidine-4-carboxamide] |
| 4.5 nM | 3 nM | – | – | C[C@@H](NC(=O)c1cc(=O)[nH]c(-c2ccccc2)n1)c1ccc(OC(F)(F)F)cc1 [Example 275, 6-oxo-2-phenyl-N-{(1R)-1-[4-(trifluoromethoxy)phenyl]ethyl}-1,6-dihydropyrimidine-4-carboxamide] |
| 16 nM | 12 nM | – | – | CCc1ccc(C(C)NC(=O)c2cc(=O)[nH]c(-c3ccccc3)n2)cc1 (stereo not shown) [Example 165, N-[1-(4-ethylphenyl)ethyl]-6-oxo-2-phenyl-1,6-dihydropyrimidine-4-carboxamide] |
| 2.9 nM | 2.3 nM | – | – | O=C(NC1(c2ccc(C(F)(F)F)c(F)c2)CC1)c1cc(=O)[nH]c(-c2ccccc2)n1 [Example 145, N-{1-[3-fluoro-4-(trifluoromethyl)phenyl]cyclopropyl}-6-oxo-2-phenyl-1,6-dihydropyrimidine-4-carboxamide] |
| 40 nM | 20 nM | – | – | C[C@@H](NC(=O)c1cc(=O)[nH]c(C2CC2)n1)c1ccc2ccccc2c1 [Example 224, 2-cyclopropyl-N-[(1R)-1-naphthalen-2-ylethyl]-6-oxo-1,6-dihydropyrimidine-4-carboxamide] |
| 2 nM | 1.2 nM | – | – | CC(C)[C@@H](NC(=O)c1cc(=O)[nH]c(C2CC2)n1)c1ccc(OC(F)(F)F)c(F)c1 [Example 128, 2-cyclopropyl-N-{(1R)-1-[3-fluoro-4-(trifluoromethoxy)phenyl]-2-methylpropyl}-6-oxo-1,6-dihydropyrimidine-4-carboxamide] |
| 1.2 nM | – | 1.6 nM | 1.5 nM | CC(C)[C@@H](NC(=O)c1cc(=O)[nH]c(-c2ncccn2)n1)c1ccc(S(F)(F)(F)(F)F)cc1 [Example 265, N-{(1R)-2-methyl-1-[4-(pentafluoro-λ^6-sulfanyl)phenyl]propyl}-6-oxo-1,6-dihydro-2,2′-bipyrimidine-4-carboxamide] |
| 411 nM | 231 nM | – | – | CC(C)c1nc(C(=O)N[C@H](C)c2ccc(C(F)(F)F)cc2)cc(=O)[nH]1 [Example 137, 2-(1-methylethyl)-6-oxo-N-{(1R)-1-[4-(trifluoromethyl)phenyl]ethyl}-1,6-dihydropyrimidine-4-carboxamide] |
| – | – | 8.1 nM | 6.5 nM | CC[C@@H](NC(=O)c1cc(=O)[nH]c(-c2ccccc2)n1)c1ccc(S(F)(F)(F)(F)F)cc1 [Example 386, 6-oxo-N-{(1R)-1-[4-(pentafluoro-λ^6-sulfanyl)phenyl]propyl}-2-phenyl-1,6-dihydropyrimidine-4-carboxamide] |
| 124 nM | 61 nM | – | – | O=C(NC1(c2ccc(OC(F)(F)F)cc2)CCC1)c1cc(=O)[nH]c(-c2ccccc2)n1 [Example 282] |
| 124 nM | – | 217 nM | 224 nM | COc1cc(C(C)NC(=O)c2cc(=O)[nH]c(-c3ccccc3)n2)cc(OC)c1OC (stereo not shown) [Example 351, 6-oxo-2-phenyl-N-[1-(3,4,5-trimethoxyphenyl)ethyl]-1,6-dihydropyrimidine-4-carboxamide] |
| 3.6 nM | – | 6.7 nM | 5.8 nM | C[C@@H](NC(=O)c1cc(=O)[nH]c(C2CC2)n1)c1ccc(SC(F)(F)F)c(F)c1 [Example 243, 2-cyclopropyl-N-[(1R)-1-{3-fluoro-4-[(trifluoromethyl)sulfanyl]phenyl}ethyl]-6-oxo-1,6-dihydropyrimidine-4-carboxamide] |
| – | – | 2.8 nM | 2.3 nM | COc1ccc(Cc2nc(C(=O)N[C@@H](c3ccc(S(F)(F)(F)(F)F)cc3)C3CC3)cc(=O)[nH]2)cc1 [Example 468, N-{(R)-cyclopropyl[4-(pentafluoro-λ^6-sulfanyl)phenyl]methyl}-2-(4-methoxybenzyl)-6-oxo-1,6-dihydropyrimidine-4-carboxamide] |
| 3.9 nM | 1.3 nM | – | – | CC(C)[C@@H](NC(=O)c1cc(=O)[nH]c(C2CC2)n1)c1ccc(C(F)(F)F)cc1 [Example 193, 2-cyclopropyl-N-{(1R)-2-methyl-1-[4-(trifluoromethyl)phenyl]propyl}-6-oxo-1,6-dihydropyrimidine-4-carboxamide] |
| – | – | 68 nM | 70 nM | Cc1nc(C(=O)N[C@@H](c2ccc(OC(F)F)cc2)C2CC2)cc(=O)[nH]1 [Example 610, N-{(R)-cyclopropyl[4-(difluoromethoxy)phenyl]methyl}-2-methyl-6-oxo-1,6-dihydropyrimidine-4-carboxamide] |
